Laboratory results reported in US20240343706A1, “PIPERIDINE-2,6-DIONE DERIVATIVES WHICH BIND TO CEREBLON, AND METHODS OF USE THEREOF” (Captor Therapeutics S.A., priority 2019, published 2024).

Legend:
IKZF1 = IKZF1 degradation assay, H929 cell line (western blot densitometry); type: cell-based; details: H929 cells; for % of protein reduction based on densitometry values, IKZF 1 (24 H): summary Table 10, 20 μM (some compounds 10 and 20 μM); for % of IKZF1 α protein reduction based on densitometry values: 24 h
From the text: (§1) After primary and secondary Ab staining, the membranes were washed and signals developed. The densitometry analysis was implemented to obtain the numeric values used later in the protein level evaluation process.

[1] = target: CRBN-DDB1 protein complex (Homo sapiens, UniProt Q96SW2); test: Fluorescence polarization (FP) assay, displacement of Cy5-labelled thalidomide; details: 25 nM CRBN-DDB1, 5 nM Cy5-labelled thalidomide, read-out: CRBN binding Ki
Experimental: CRBN-DDB1 protein complex was mixed with Cy5-labelled thalidomide and a compound to be tested (the “test compound”). […] The test solution was added to a 384-well assay plate.
The plate was spun-down (1 min, 1000 rpm, 22° C.) and then shaken using a VibroTurbulator for 10 min at room temperature (20-25° C.), with the frequency set to level 3. The assay plate with protein and the tracer was incubated for 60 min at room temperature (20-25° C.) prior to read-out with a plate reader.
The FP experiment was carried out with various concentrations of the test compounds in order to measure Ki values.

CK1α = CK1α degradation assay, Kelly cell line (western blot densitometry); type: cell-based; details: Kelly cells; for % of protein reduction based on densitometry values, CK1α (24 H): summary Table 10, 20 μM (some compounds 10 and 20 μM); for % of CK1α protein reduction, based on densitometry values: 24 h
From the text: as §1

SALL4 = SALL4 degradation assay, Kelly cell line (western blot densitometry); type: cell-based; details: Kelly cells; for % of protein reduction based on densitometry values, SALL4 (24 H): summary Table 10, 20 μM (some compounds 10 and 20 μM); for % of SALL4 protein reduction, based on densitometry values: 24 h
From the text: as §1

IKZF3 = IKZF3 degradation assay, H929 cell line (western blot densitometry); type: cell-based; details: H929 cells; for % of IKZF3 protein reduction based on densitometry values, IKZF3 Band I / % of IKZF3 protein reduction based on densitometry values, IKZF3 Band II: 24 h; for % of protein reduction based on densitometry values, IKZF3 (24 H): summary Table 10, 10 and 20 μM

Chain of CRBN-DDB1 protein complex (Q96SW2 whole entry): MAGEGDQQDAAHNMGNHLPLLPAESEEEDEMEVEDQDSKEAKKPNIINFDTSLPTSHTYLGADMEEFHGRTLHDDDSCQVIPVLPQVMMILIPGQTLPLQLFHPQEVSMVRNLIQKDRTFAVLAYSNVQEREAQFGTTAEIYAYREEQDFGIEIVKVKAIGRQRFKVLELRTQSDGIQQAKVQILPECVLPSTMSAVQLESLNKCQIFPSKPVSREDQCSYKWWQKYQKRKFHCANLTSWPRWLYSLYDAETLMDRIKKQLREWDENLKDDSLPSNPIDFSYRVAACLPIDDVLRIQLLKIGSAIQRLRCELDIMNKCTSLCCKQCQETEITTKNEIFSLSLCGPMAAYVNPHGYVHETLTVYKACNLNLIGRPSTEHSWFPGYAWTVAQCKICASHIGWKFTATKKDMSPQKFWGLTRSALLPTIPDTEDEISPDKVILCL
Chain of CRBN-DDB1 protein complex (Q16531 whole entry partner): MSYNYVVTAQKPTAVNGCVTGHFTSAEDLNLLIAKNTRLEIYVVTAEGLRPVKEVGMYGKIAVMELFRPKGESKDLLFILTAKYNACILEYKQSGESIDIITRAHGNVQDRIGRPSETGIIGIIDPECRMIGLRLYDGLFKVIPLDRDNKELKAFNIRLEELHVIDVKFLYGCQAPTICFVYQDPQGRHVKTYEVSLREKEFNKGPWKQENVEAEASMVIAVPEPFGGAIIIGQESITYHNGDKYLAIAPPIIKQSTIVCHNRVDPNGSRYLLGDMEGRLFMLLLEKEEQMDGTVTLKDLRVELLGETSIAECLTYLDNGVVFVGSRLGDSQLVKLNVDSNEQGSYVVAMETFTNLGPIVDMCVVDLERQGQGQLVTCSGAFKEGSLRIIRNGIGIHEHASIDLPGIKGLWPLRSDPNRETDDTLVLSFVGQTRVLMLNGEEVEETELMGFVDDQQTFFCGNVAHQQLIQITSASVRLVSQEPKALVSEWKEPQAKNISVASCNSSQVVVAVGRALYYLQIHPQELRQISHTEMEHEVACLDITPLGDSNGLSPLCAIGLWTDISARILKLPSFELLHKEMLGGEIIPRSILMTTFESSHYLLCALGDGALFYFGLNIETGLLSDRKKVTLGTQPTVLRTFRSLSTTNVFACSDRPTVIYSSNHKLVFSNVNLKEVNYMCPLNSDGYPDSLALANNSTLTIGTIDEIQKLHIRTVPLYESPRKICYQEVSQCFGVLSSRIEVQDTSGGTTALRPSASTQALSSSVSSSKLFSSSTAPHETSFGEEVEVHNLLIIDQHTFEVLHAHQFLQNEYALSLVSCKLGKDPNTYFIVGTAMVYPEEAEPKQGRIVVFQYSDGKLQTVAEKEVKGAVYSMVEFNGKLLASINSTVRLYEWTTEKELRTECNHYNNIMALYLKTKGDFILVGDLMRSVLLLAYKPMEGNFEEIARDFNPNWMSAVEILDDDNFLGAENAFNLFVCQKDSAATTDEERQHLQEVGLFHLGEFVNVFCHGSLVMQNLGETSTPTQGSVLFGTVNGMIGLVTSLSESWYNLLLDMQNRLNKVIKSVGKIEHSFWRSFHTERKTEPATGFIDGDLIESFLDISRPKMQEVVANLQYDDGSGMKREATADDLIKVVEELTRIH

Structure (SMILES) | Ki [1] [µM] | % of protein reduction based on densitometry values, IKZF 1 (24 H) (IKZF1) | % of protein reduction based on densitometry values, CK1α (24 H) (CK1α) | % of protein reduction based on densitometry values, SALL4 (24 H) (SALL4) | % of IKZF3 protein reduction based on densitometry values, IKZF3 Band I (IKZF3; 10 μM) | % of IKZF3 protein reduction based on densitometry values, IKZF3 Band II (IKZF3; 10 μM) | % of IKZF3 protein reduction based on densitometry values, IKZF3 Band I (IKZF3; 20 μM) | % of IKZF3 protein reduction based on densitometry values, IKZF3 Band II (IKZF3; 20 μM) | % of protein reduction based on densitometry values, IKZF3 (24 H) (IKZF3) | % of IKZF1 α protein reduction based on densitometry values (IKZF1; 10 μM) | % of IKZF1 α protein reduction based on densitometry values (IKZF1; 20 μM) | % of CK1α protein reduction, based on densitometry values (CK1α; 10 μM) | % of CK1α protein reduction, based on densitometry values (CK1α; 20 μM) | % of SALL4 protein reduction, based on densitometry values (SALL4; 10 μM) | % of SALL4 protein reduction, based on densitometry values (SALL4; 20 μM)
O=C1CCC(NC(=O)c2cccc3c2NC(=O)C3)C(=O)N1 (centres unmarked) [Compound 1, N-(2,6-dioxopiperidin-3-yl)-2-oxoindoline-7-carboxamide] | 10 to 50 | ≤25% (≤25% for 0-25% of IKZF1 protein reduction) | ≤25% (≤25% for 0-25% of CK1a protein reduction) | ≤25% (≤25% for 0-25% of SALL4 protein reduction) | – | – | – | – | – | – | – | – | – | – | –
O=C1CCC(NC(=O)c2ccnc3cc[nH]c23)C(=O)N1 (centres unmarked) [Compound 37, N-(2,6-dioxopiperidin-3-yl)-1H-pyrrolo[3,2-b]pyridine-7-carboxamide] | 10 to 50 | ≤25% (≤25% for 0-25% of IKZF1 protein reduction) | ≤25% (≤25% for 0-25% of CK1a protein reduction) | ≤25% (≤25% for 0-25% of SALL4 protein reduction) | – | – | – | – | – | – | – | – | – | – | –
O=C1CCC(NC(=O)c2cccc3[nH]c(C(F)F)nc23)C(=O)N1 (centres unmarked) [Compound 23, 2-(difluoromethyl)-N-(2,6-dioxopiperidin-3-yl)-1H-benzo[d]imidazole-7-carboxamide] | 1 to 10 | ≤25% (≤25% for 0-25% of IKZF1 protein reduction) | ≤25% (≤25% for 0-25% of CK1a protein reduction) | ≤25% (≤25% for 0-25% of SALL4 protein reduction) | – | – | – | – | – | – | – | – | – | – | –
Cn1cnc2c(C(=O)NC3CCC(=O)NC3=O)cccc21 (centres unmarked) [Compound 4, N-(2,6-dioxopiperidin-3-yl)-1-methyl-1H-benzo[d]imidazole-4-carboxamide] | 1 to 10 | ≤25% (≤25% for 0-25% of IKZF1 protein reduction) | ≤25% (≤25% for 0-25% of CK1a protein reduction) | ≤25% (≤25% for 0-25% of SALL4 protein reduction) | – | – | – | – | – | – | – | – | – | – | –
CC(C)Cc1nc2c(C(=O)NC3CCC(=O)NC3=O)cccc2[nH]1 (centres unmarked) [Compound 24, N-(2,6-dioxopiperidin-3-yl)-2-isobutyl-1H-benzo[d]imidazole-7-carboxamide] | 1 to 10 | ≤25% (≤25% for 0-25% of IKZF1 protein reduction) | ≤25% (≤25% for 0-25% of CK1a protein reduction) | ≤25% (≤25% for 0-25% of SALL4 protein reduction) | – | – | – | – | – | – | – | – | – | – | –
Cc1nc2c(C(=O)NC3CCC(=O)NC3=O)ccnc2[nH]1 (centres unmarked) [Compound 36, N-(2,6-dioxopiperidin-3-yl)-2-methyl-3H-imidazo[4,5-b]pyridine-7-carboxamide] | 1 to 10 | ≤25% (≤25% for 0-25% of IKZF1 protein reduction) | ≤25% (≤25% for 0-25% of CK1a protein reduction) | ≤25% (≤25% for 0-25% of SALL4 protein reduction) | – | – | – | – | – | – | – | – | – | – | –
Nc1cccc2c1C(=O)N(C1CCC(=O)NC1=O)C2=O (centres unmarked) [Pomalidomide, reference compound] | – | ≥75% (≥75% for 75-100% of IKZF1 protein reduction) | >25% (>25% for 26-74% of CK1a protein reduction) | ≥75% (≥75% for 75-100% of SALL4 protein reduction) | ≥75% (≥75% for 75-100% of IKZF3 protein reduction) | ≥75% (≥75% for 75-100% of IKZF3 protein reduction) | ≥75% (≥75% for 75-100% of IKZF3 protein reduction) | ≥75% (≥75% for 75-100% of IKZF3 protein reduction) | ≥75% (≥75% for 75-100% of IKZF3 protein reduction) | ≥75% (≥75% for 75-100% of IKZF1 protein reduction) | ≥75% (≥75% for 75-100% of IKZF1 protein reduction) | >25% (>25% for 26-74% of CK1a protein reduction) | >25% (>25% for 26-74% of CK1a protein reduction) | ≥75% (≥75% for 75-100% of SALL4 protein reduction) | ≥75% (≥75% for 75-100% of SALL4 protein reduction)

Continued, in another order:

Ki [1] [µM] | Structure (SMILES) | % of protein reduction based on densitometry values, IKZF 1 (24 H) (IKZF1) | % of protein reduction based on densitometry values, CK1α (24 H) (CK1α) | % of protein reduction based on densitometry values, SALL4 (24 H) (SALL4) | % of IKZF3 protein reduction based on densitometry values, IKZF3 Band I (IKZF3; 10 μM) | % of IKZF3 protein reduction based on densitometry values, IKZF3 Band II (IKZF3; 10 μM) | % of IKZF3 protein reduction based on densitometry values, IKZF3 Band I (IKZF3; 20 μM) | % of IKZF3 protein reduction based on densitometry values, IKZF3 Band II (IKZF3; 20 μM) | % of protein reduction based on densitometry values, IKZF3 (24 H) (IKZF3) | % of IKZF1 α protein reduction based on densitometry values (IKZF1; 10 μM) | % of IKZF1 α protein reduction based on densitometry values (IKZF1; 20 μM) | % of CK1α protein reduction, based on densitometry values (CK1α; 10 μM) | % of CK1α protein reduction, based on densitometry values (CK1α; 20 μM) | % of SALL4 protein reduction, based on densitometry values (SALL4; 10 μM) | % of SALL4 protein reduction, based on densitometry values (SALL4; 20 μM)
1 to 10 | O=C1CCC(NC(=O)c2c(F)ccc3[nH]cnc23)C(=O)N1 (centres unmarked) [Compound 7, N-(2,6-dioxopiperidin-3-yl)-5-fluoro-1H-benzo[d]imidazole-4-carboxamide] | ≤25% (≤25% for 0-25% of IKZF1 protein reduction) | ≤25% (≤25% for 0-25% of CK1a protein reduction) | ≤25% (≤25% for 0-25% of SALL4 protein reduction) | – | – | – | – | – | – | – | – | – | – | –
1 to 10 | O=C1CCC(NC(=O)c2cc(F)cc3[nH]cnc23)C(=O)N1 (centres unmarked) [Compound 8, N-(2,6-dioxopiperidin-3-yl)-6-fluoro-1H-benzo[d]imidazole-4-carboxamide] | ≤25% (≤25% for 0-25% of IKZF1 protein reduction) | ≤25% (≤25% for 0-25% of CK1a protein reduction) | ≤25% (≤25% for 0-25% of SALL4 protein reduction) | – | – | – | – | – | – | – | – | – | – | –
< 1 | COc1cc(C(=O)NC2CCC(=O)NC2=O)c2nc(C)[nH]c2c1 (centres unmarked) [Compound 30, N-(2,6-dioxopiperidin-3-yl)-6-methoxy-2-methyl-1H-benzo[d]imidazole-4-carboxamide] | ≤25% (≤25% for 0-25% of IKZF1 protein reduction) | ≤25% (≤25% for 0-25% of CK1a protein reduction) | ≤25% (≤25% for 0-25% of SALL4 protein reduction) | ≤25% (≤25% for 0-25% of IKZF3 protein reduction) | ≤25% (≤25% for 0-25% of IKZF3 protein reduction) | ≤25% (≤25% for 0-25% of IKZF3 protein reduction) | ≤25% (≤25% for 0-25% of IKZF3 protein reduction) | ≤25% (≤25% for 0-25% of IKZF3 protein reduction) | – | – | – | – | – | –
< 1 | O=C1CCC(NC(=O)c2cccc3[nH]c(C(F)(F)F)nc23)C(=O)N1 (centres unmarked) [Compound 25, N-(2,6-dioxopiperidin-3-yl)-2-(trifluoromethyl)-1H-benzo[d]imidazole-7-carboxamide] | ≤25% (≤25% for 0-25% of IKZF1 protein reduction) | ≤25% (≤25% for 0-25% of CK1a protein reduction) | ≤25% (≤25% for 0-25% of SALL4 protein reduction) | – | – | – | – | – | – | – | – | – | – | –
